The structures appear in SMILES notation.

Data set [1] can be described thus: DM logD.
In data set [2] the test system is Respiratory syncytial virus recombinant with luciferase (RSV-Luc5) in HEp-2 cells. Kind of data set: microbe, parasite or virus in culture. The format is cell-based. Particulars: human respiratory syncytial virus, HEp-2, read-out: EC50 RSVFluc-Hep2 384 V2.
For data set [3], the system named is Respiratory syncytial virus recombinant with luciferase (RSV-Luc5) in Normal Human Bronchial Epithelial (NHBE) cells. Kind of data set: microbe, parasite or virus in culture. Particulars: read-out: EC50 RSVFluc-NHBE 384 V2. The format is cell-based.
The subject of data set [4] is SARS Coronavirus 2 recombinant with NanoLuc (SARS-CoV2-NLuc) in A549-hACE2 cells. Kind of data set: microbe, parasite or virus in culture. Conditions: A549; read-out: EC50 SARS CoV2 NanoLuc A549 384. In kind it is cell-based.
The nature of data set [5]: CC50 MT4 cytotoxicity (Cell-Titer Glo). In kind it is cell-based. Conditions: human; uninfected MT-4 cells; Table D3; read-out: CC50 MT4 384. The method in brief: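 CC50 values are the concentrations cutting viability by 50%, fitted by non-linear regression against untreated (100%) and 2 μM puromycin (0%) controls. Cell-Titer Glo luminescence measured after 4-5 days at 37° C exposure of uninfected MT-4 and HEp-2 cells to 3-fold dilutions spanning 15 nM to 100,000 nM.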

A short description of data set [6]: GI S9 stability - no PMSF. The format is in vitro ADME. Conditions: human, s9, 2 µM, pH 7.4. The method in brief:
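Stability was assessed by Q-Exactive LC-MS peak area ratios against internal standard, tracking loss of parent and appearance of nucleoside metabolite Reference Compound A. Incubations used 2 μM compound in 1 mg/mL intestinal S9 without PMSF (PBS, pH 7.4), with six samples taken over 120 min.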

Data set [7] is described as follows: Plasma stability. In kind it is in vitro ADME. More on the design: unit not given here. Particulars: 37° C., 2 μM substrate. The method in brief: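 LC-MS (Q-Exactive, 5 ppm tolerance, 0.1% formic acid water/acetonitrile gradient) quantified compound in quenched aliquots. Aliquots were taken at 0.05, 0.5, 1, 2, 3 and 4 hr and quenched with internal-standard solution, and supernatants were diluted with water after centrifugation.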

For data set [8], the system named is Caco-2 cells (clone C2BBe1). As to the kind of experiment: CACO-2 permeability. In kind it is in vitro ADME. More on the design: unit not given here. The method in brief: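 A-to-B and B-to-A flux measured by LC-MS/MS from receiver samples taken at 1 and 2 h, with donor sampled at 0 and 2 h and recovery checked. Buffers: pH 6.5 HBSS with 200 μM BNPP on the donor side, pH 7.4 with BSA on the receiver side. Monolayers were 21-day cultures, TEER-verified, in duplicate wells.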

Data set [9] can be described thus: Stability in pH2 buffered solution. The format is physicochemical. Conditions: 50 µg/mL, pH 2. The method in brief:
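UPLC % area-normalized compound peak tracked over 24 hrs at 40° C. (0, 3, 6, 9, 12 and 24 hrs). Samples at 50 μg/mL, prepared from 1 mg/mL acetonitrile stock, in pH2 or pH7 50 mM phosphate/150 mM NaCl buffer.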

For data set [10] the following is noted: male, Sprague-Dawley, rat, in vivo, po. How it is done: Example E: Rat pharmacokinetics assay
Blood samples were collected into pre-chilled collection tubes containing K2EDTA and processed to plasma at 10 time points over a span of pre-dose to 24 h post-administration. Plasma samples were subject to protein precipitation with a 12.5-fold volume of methanol, vortexed and centrifuged. Supernatants were transferred and evaporated to dryness under nitrogen and reconstituted with 5% acetonitrile in water.

The molecule `N#C[C@@]1(c2ccc3c(N)ncnn23)O[C@H](COC(=O)OCCl)[C@@H](O)[C@H]1O` [Compound 101, ((2R,3S,4R,5R)-5-(4-aminopyrrolo[2,1-f][1,2,4]triazin-7-yl)-5-cyano-3,4-dihydroxytetrahydrofuran-2-yl)methyl (chloromethyl) carbonate] displayed a logD in data set [1] of 0.9. In addition, the EC50 in [2] amounted to 1.84 µM; in data set [3], 1.96 µM; in data set [4], 3.21 µM. Also, in data set [5], the CC50 was greater than 50 µM.

On to `CCOP(=O)(O)O[C@H]1[C@@H](O)[C@](C#N)(c2ccc3c(N)ncnn23)O[C@@H]1COC(=O)OC(C)C` [Compound 144, [(2R,3S,4R,5R)-5-(4-aminopyrrolo[2,1-f][1,2,4]triazin-7-yl)-5-cyano-3-[ethoxy(hydroxy)phosphoryl]oxy-4-hydroxy-tetrahydrofuran-2-yl]methyl isopropyl carbonate], for which, in [1], the logD amounted to 0.4. In addition, the figures for the 50% effective concentration (EC50) in data set [3] and in data set [4] were 3.06 µM and greater than 50 µM, respectively. The CC50 in [5] was greater than 50 µM.

Consider `CN1[C@@H]2CC[C@H]1C[C@@H](OC(=O)OC[C@H]1O[C@@](C#N)(c3ccc4c(N)ncnn34)[C@H](O)[C@@H]1O)C2` [Compound 156, ((2R,3S,4R,5R)-5-(4-aminopyrrolo[2,1-f][1,2,4]triazin-7-yl)-5-cyano-3,4-dihydroxytetrahydrofuran-2-yl)methyl ((1R,3r,5S)-8-methyl-8-azabicyclo[3.2.1]octan-3-yl) carbonate], for which, in data set [1], the logD was 0.3. For the same molecule, the “GIS9-HUMAN-NoPMSF T1/2” value in [6] was 789. Also, the EC50 in [3] was 49.8 µM; in data set [4], 31.4 µM. In addition, the “STA Human Plasma 37” value in data set [7] is 248.79. In addition, the “DM Caco2 A to B” value in data set [8] (apical to basolateral, donor pH 6.5, receiver pH 7.4) is given as 0.12. The “DM Caco2 B to A” value in data set [8] (basolateral to apical) was determined as 0.13. Besides, the CC50 in data set [5] is greater than 50 µM.

`CC(C)C(=O)OC[C@H]1O[C@@](C#N)(c2ccc3c(N)ncnn23)[C@H](O)[C@@H]1O` [Ester Reference Compound]: in data set [9] (0 h), the “Stability at pH2, 0 hr” value worked out at 98.5 % AN. In addition, the “Stability at pH2, 3 hr” value in data set [9] (3 h) stood at 97.8 % AN. Moreover, the “Stability at pH2, 6 hr” value in [9] (6 h) is recorded as 97.3 % AN. The “Stability at pH2, 9 hr” value in data set [9] (9 h) is 96.7 % AN. Moreover, the “Stability at pH2, 12 hr” value in [9] (12 h) came out at 96.1 % AN. Moreover, the “Stability at pH2, 24 hr” value in data set [9] (24 h) turned out to be 94.4 % AN. In data set [10], the Cmax is 2100 nM and the “Reference Compound A AUCinf.” value was found to be 7.57 µM·h. The “Reference Compound A F %” value in data set [10] (1 mg/kg) turned out to be 63.6%.

The values are drawn from patent publication US12448383B2, “Compounds and methods for treatment of viral infections” (priority 2022, dated 2025).
